26 molecules from patent US20240287065A1, “COMPOUND AS CDK KINASE INHIBITOR AND USE THEREOF” (TYK MEDICINES (ZHENGZHOU) , INC., priority 2021, published 2024) can be followed below.

Assay [1] relates to HCC1806 cells. Kind of assay: Cell proliferation inhibition assay (MTT, 7 days). Format: cell-based. To be noted: Homo sapiens, HCC1806, 168 h, HCC1086 [sic], 7 days incubation. The procedure: (§1) MCF7, T47D, OVCAR3 and HCC1806 cells were inoculated in 96-well plates at 3000, 3000, 2500, and 2000 cells/well, respectively, and cultured overnight at 37° C., 5% C02 incubator.
(§2) 1. […] Then 2.5 μl of the stock solution was dissolved in 497.5 μl of DMSO-free medium, and then a 3-fold serial gradient dilution was performed with 0.1% DMSO medium for a total of 9 concentrations, and the concentrations of the compounds after dilution were as follows: • 10000 nM, 3333.33 nM, 1111.11 nM, 370.34 nM, 123.45 nM, 41.15 nM, 13.72 nM, 4.57 nM, and 1.52 nM. • b) After fully mixing, 20 μL of compound solutions were added into cell culture plates containing 80 μL of cells respectively, with 4 replicate wells for each concentration. • c) The cells were transferred to an incubator and incubated for 7 days, and exchanged with fresh culture medium containing the same concentration of compounds when incubated to day 4. 2. MTT assay • a) The cell culture plate was taken out and 10 μL of 5 mg/ml MTT was added to the hood. • b) The cell culture plate was put back into the incubator and continued to incubate for 3 hours. • c) The cell culture plate was taken out to remove the culture medium, and 100 μL of isopropanol (0.4 mMHCl, 0.4% NP40) was added to the plate, and the plate was shaken on a shaker at room temperature for 30 minutes and read at 570 nm. 3. Data analysis
(§3) The survival rate (% Cell Survival) was calculated using the following equation:
(§4) % Cell Survival=100%×(OD_Sample−OD_LCave)/(OD_HC−OD_LCave) • OD_HC: 0.1‰ cell readings of DMSO control • OD_Sample: cell readings of compound addition • OD_LC: readings of blank medium • Analyed by Prizm: Dose-response-Inhibition Log(inhibitor) vs response (three parameters for the best fit)
(§5) IC50 (nM) values were calculated by concentration-response curve fitting.

Assay [2] concerns MCF7 cells. Kind of assay: Cell proliferation inhibition assay (MTT, 7 days). Format: cell-based. As to conditions: Homo sapiens, 168 h, 7 days incubation. The procedure:
as §1, §2, §3, §4, §5

Assay [3] relates to OVCAR3 cells. Kind of assay: Cell proliferation inhibition assay (MTT, 7 days). Format: cell-based. To be noted: Homo sapiens, OVCAR-3, 168 h, 7 days incubation. The procedure:
as §1, §2, §3, §4, §5

The subject of assay [4] is T47D cells. In words: Cell proliferation inhibition assay (MTT, 7 days). Format: cell-based. To be noted: Homo sapiens, 168 h, 7 days incubation. The procedure:
as §1, §2, §3, §4, §5

In assay [5] the target is CDK2/CycE1 (Homo sapiens, UniProt P24941). In words: Enzyme activity test. Format: biochemical. The procedure:
(§6) • 1. The test compounds and pabocinib were configured into a […] solution of DMSO; • 2. 20 nL of stock solution was transferred to a 384-well plate using Echo550. DMSO was used as a blank control.
(§7) • 1. according to the following table to prepare 1.3X enzyme solution containing enzyme, substrate and cofactor; • 2. 15 μL of 1.3X enzyme solution was added to each well and the mixture was incubated for 30 min at room temperature; • 3. 5 μL of ATP solution was added to initiate the reaction. The final volume of each well was 20 μL; • 4. After incubation for 150 min at room temperature, 75 μL of termination buffer solution was added to terminate the experiment; • 5. The samples were analyzed using EZ reader.
(§8) The % inhibition was calculated using the following equation
(§9) The one treated with DMSO is the positive control (PC)
(§10) The one without enzyme is the negative control (NC)
(§11) % Inhibition=100-100*((CRPC−CRsample)/(CRPC−CRNC))

Assay [6] deals with CDK4/CycD3 (Homo sapiens, UniProt P11802). Kind of assay: Enzyme activity test. Format: biochemical. The procedure:
as §6, §7, §8, §9, §10, §11

Some results are limits rather than exact numbers.

Chain of CDK4/CycD3 (P11802 whole entry, species assumed): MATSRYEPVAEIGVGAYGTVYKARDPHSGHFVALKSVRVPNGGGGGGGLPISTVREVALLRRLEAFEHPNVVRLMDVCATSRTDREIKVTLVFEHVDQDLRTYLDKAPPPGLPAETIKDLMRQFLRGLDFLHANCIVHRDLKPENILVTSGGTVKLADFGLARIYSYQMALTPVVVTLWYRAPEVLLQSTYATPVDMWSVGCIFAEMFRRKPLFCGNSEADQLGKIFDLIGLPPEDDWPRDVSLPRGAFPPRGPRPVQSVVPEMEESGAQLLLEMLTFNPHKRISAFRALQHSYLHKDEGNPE
Chain of CDK4/CycD3 (P30281 whole entry partner, species assumed): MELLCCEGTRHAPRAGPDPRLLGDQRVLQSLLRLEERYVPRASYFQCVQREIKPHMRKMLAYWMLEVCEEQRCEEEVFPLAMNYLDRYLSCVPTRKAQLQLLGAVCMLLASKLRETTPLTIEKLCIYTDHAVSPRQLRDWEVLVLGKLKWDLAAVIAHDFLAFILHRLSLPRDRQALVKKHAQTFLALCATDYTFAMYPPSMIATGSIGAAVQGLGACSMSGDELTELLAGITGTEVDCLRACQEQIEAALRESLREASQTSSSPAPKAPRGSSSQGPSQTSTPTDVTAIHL

Consider `C[C@@]1(O)CCC[C@H]1n1c(=O)c(OC(F)F)cc2cnc(NC3CCN(S(=O)(=O)c4cccc(C(F)(F)F)c4)CC3)nc21` [Example 20], for which the IC50 (commonly the concentration that inhibits the measured activity by half) in assay [1] lay within 200 to 51000 nM; in assay [2] it was 200 to 51000 nM; in assay [3] it was 50 to 5200 nM; in assay [4], 50 to 5200 nM.

Turning to `C[C@@]1(O)CCC[C@H]1n1c(=O)c(OC(F)F)cc2cnc(NC3CCN(S(=O)(=O)c4cc(F)c(F)cc4F)CC3)nc21` [Example 21], the IC50 in assay [1] lay in the range of 200 to 51000 nM; in assay [2] it was 200 to 51000 nM; in assay [3], 50 to 5200 nM; in assay [4], 50 to 5200 nM.

For `CCCS(=O)(=O)N1CCC(Nc2ncc3cc(OC(F)F)c(=O)n([C@@H]4CCC[C@@]4(C)O)c3n2)CC1` [Example 30], the IC50 in assay [1], in assay [2], in assay [3] and in assay [4] was 50 to 5200 nM throughout.

On to `[2H]C([2H])([2H])Oc1ccc(S(=O)(=O)N2CCC(Nc3ncc4cc(OC(F)F)c(=O)n([C@@H]5CCC[C@@]5(C)O)c4n3)CC2)cc1` [Example 31], for which the half-maximal inhibitory concentration (IC50) in assay [1] was no more than 50 nM; in assay [2] it was no more than 50 nM; in assay [3] it was no more than 50 nM; in assay [4], no more than 50 nM; in assay [5], less than 10 nM; in assay [6], less than 10 nM.

`C[C@@]1(O)CCC[C@H]1n1c(=O)c(OC(F)F)cc2cnc(NC3CCN(S(=O)(=O)CCC#N)CC3)nc21` [Example 33]: the IC50 in assay [1] was 200 to 51000 nM; in assay [2] it was 50 to 5200 nM; in assay [3], 50 to 5200 nM; in assay [4], 50 to 5200 nM; in assay [5] it was less than 10 nM.

Consider `CCOc1ccc(S(=O)(=O)N2CCC(Nc3ncc4cc(OC(F)F)c(=O)n([C@@H]5CCC[C@@]5(C)O)c4n3)CC2)cc1` [Example 34], for which the IC50 in assay [1], in assay [2], in assay [3] and in assay [4] was no more than 50 nM in each case.

For the molecule `COc1ccc(S(=O)(=O)N2CCC(Nc3ncc4cc(OC(F)F)c(=O)n([C@@H]5CCC[C@@]5(C)O)c4n3)CC2)cn1` [Example 36], the IC50 in assay [1] is no more than 50 nM; in assay [2], no more than 50 nM; in assay [3], no more than 50 nM; in assay [4] it was no more than 50 nM; in assay [5], less than 10 nM; in assay [6] it was less than 10 nM.

On to `COc1ncccc1S(=O)(=O)N1CCC(Nc2ncc3cc(OC(F)F)c(=O)n([C@@H]4CCC[C@@]4(C)O)c3n2)CC1` [Example 37], for which the IC50 is no more than 50 nM in assay [1]; no more than 50 nM in assay [3]; no more than 50 nM in assay [4]; less than 10 nM in assay [5]; less than 10 nM in assay [6].

`C[C@@]1(O)CCC[C@H]1n1c(=O)c(OC(F)F)cc2cnc(NC3CCN(S(=O)(=O)CC#N)CC3)nc21` [Example 38]: the results for the IC50 in assay [1] and in assay [2] were 50 to 5200 nM and no more than 50 nM, respectively.

For `CCn1cc(S(=O)(=O)N2CCC(Nc3ncc4cc(OC(F)F)c(=O)n([C@@H]5CCC[C@@]5(C)O)c4n3)CC2)cn1` [Example 39], the IC50 in assay [1] and in assay [2] was no more than 50 nM throughout.

For the molecule `C[C@@]1(O)CCC[C@H]1n1c(=O)c(OC(F)F)cc2cnc(NC3CCN(S(=O)(=O)CCC(F)(F)F)CC3)nc21` [Example 40], the IC50 was 50 to 5200 nM in assay [1]; no more than 50 nM in assay [3]; 50 to 5200 nM in assay [4]; less than 10 nM in assay [5]; less than 10 nM in assay [6].

On to `C[C@@]1(O)CCC[C@H]1n1c(=O)c(OC(F)F)cc2cnc(NC3CCN(S(=O)(=O)C4CCC4)CC3)nc21` [Example 42], for which the IC50 in assay [1] is 50 to 5200 nM; in assay [2] it was no more than 50 nM; in assay [3] it was no more than 50 nM; in assay [4], no more than 50 nM; in assay [5], less than 10 nM; in assay [6] it was less than 10 nM.

Consider `CCS(=O)(=O)N1CCC(Nc2ncc3cc(OC(F)F)c(=O)n([C@@H]4CCC[C@@]4(C)O)c3n2)CC1` [Example 44], for which the IC50 in assay [1] is 50 to 5200 nM; in assay [2] it was no more than 50 nM; in assay [3] it was no more than 50 nM; in assay [4] it was no more than 50 nM; in assay [5], less than 10 nM; in assay [6], less than 10 nM.

As to `C[C@@]1(O)CCC[C@H]1n1c(=O)c(OC(F)F)cc2cnc(N[C@@H]3CCOC[C@H]3O)nc21` [Example 45], the IC50 in assay [5] and in assay [6] was 10 to 100 nM each time.

Take `C[C@@]1(O)CCC[C@H]1n1c(=O)c(OC(F)F)cc2cnc(NC3CCN(S(=O)(=O)C4CC(F)(F)C4)CC3)nc21` [Example 46]: the half-inhibitory concentration (IC50) was 50 to 5200 nM in assay [1]; no more than 50 nM in assay [2]; no more than 50 nM in assay [3]; no more than 50 nM in assay [4]; less than 10 nM in assay [5]; less than 10 nM in assay [6].

For the molecule `C[C@@]1(O)CCC[C@H]1n1c(=O)c(OC(F)F)cc2cnc(NC3CCN(S(=O)(=O)C4CCCC4)CC3)nc21` [Example 48], the IC50 in assay [1] is 50 to 5200 nM; in assay [2] it was 50 to 5200 nM; in assay [3], no more than 50 nM; in assay [4], 50 to 5200 nM; in assay [5] it was less than 10 nM; in assay [6] it was less than 10 nM.

As for `C[C@@]1(O)CCC[C@H]1n1c(=O)c(OC(F)F)cc2cnc(NC3CCN(S(=O)(=O)C4CCCCC4)CC3)nc21` [Example 49], the IC50 in assay [1] was in the range of 200 to 51000 nM; in assay [3] it was 50 to 5200 nM; in assay [4], 50 to 5200 nM.

Consider `C[C@@]1(O)CCC[C@H]1n1c(=O)c(OC(F)F)cc2cnc(NC3CCN(S(=O)(=O)C4CCC(=O)CC4)CC3)nc21` [Example 53], for which the IC50 in assay [1] is 200 to 51000 nM; in assay [2], 200 to 51000 nM; in assay [3], no more than 50 nM; in assay [4], 50 to 5200 nM.

Regarding `C[C@@]1(O)CCC[C@H]1n1c(=O)c(OC(F)F)cc2cnc(NC3CCN(S(=O)(=O)C4CCC(F)(F)CC4)CC3)nc21` [Example 54], the IC50 in assay [1] is 200 to 51000 nM; in assay [3] it was no more than 50 nM; in assay [4], 50 to 5200 nM; in assay [5], less than 10 nM; in assay [6], 10 to 100 nM.

As for `C[C@@]1(O)CCC[C@H]1n1c(=O)c(OC(F)F)cc2cnc(NC3CCN(S(=O)(=O)C4CCC(F)CC4)CC3)nc21` (stereo partly shown) [Example 55], the half-maximal inhibitory concentration (IC50) was 50 to 5200 nM in assay [1], no more than 50 nM in assay [2], 50 to 5200 nM in assay [3] and no more than 50 nM in assay [4].

`C[C@@]1(O)CCC[C@H]1n1c(=O)c(OC(F)F)cc2cnc(NC3CCN(S(=O)(=O)C4CCC(O)CC4)CC3)nc21` (stereo partly shown) [Example 56]: the IC50 in assay [1] was 200 to 51000 nM; in assay [2] it was 50 to 5200 nM; in assay [3] it was 200 to 51000 nM; in assay [4], 50 to 5200 nM.

Regarding `C[C@@]1(O)CCC[C@H]1n1c(=O)c(OC(F)F)cc2cnc(NC3CCN(C(=O)C(F)(F)F)CC3)nc21` [Example 57], the IC50 in assay [1], in assay [3] and in assay [4] was 200 to 51000 nM in each case.

Take `C[C@@]1(O)CCC[C@H]1n1c(=O)c(OC(F)F)cc2cnc(NC3CCN(S(=O)(=O)c4ccc(Cl)cc4)CC3)nc21` [Example 58]: the IC50 fell in the range of 200 to 51000 nM in assay [1], 50 to 5200 nM in assay [2], 50 to 5200 nM in assay [3] and 50 to 5200 nM in assay [4].

Take `C[C@@]1(O)CCC[C@H]1n1c(=O)c(OC(F)F)cc2cnc(NC3CCN(S(=O)(=O)c4cccc(Cl)c4)CC3)nc21` [Example 59]: the IC50 in assay [1], in assay [2], in assay [3] and in assay [4] was 50 to 5200 nM each time.

For `CN1CCN(c2ccc(Nc3ncc4cc(OC(F)F)c(=O)n([C@@H]5CCC[C@@]5(C)O)c4n3)nc2)CC1` [Example 60], the IC50 in assay [1], in assay [2], in assay [3] and in assay [4] was no more than 50 nM throughout.

With `CN1CCN(c2ccc(Nc3ncc4cc(OC(F)F)c(=O)n([C@@H]5CCC[C@@]5(C)O)c4n3)cc2)CC1` [Example 63], the IC50 in assay [1] was 50 to 5200 nM; in assay [2], no more than 50 nM; in assay [3], no more than 50 nM; in assay [4], 50 to 5200 nM.
